Results reported in article PMC7063992, “Opossum Cathelicidins Exhibit Antimicrobial Activity Against a Broad Spectrum of Pathogens Including West Nile Virus” (Frontiers in Immunology, 2020).
No end group written: not given here.

Assays:
HEK293T [1] = test: Mammalian cell cytotoxicity, WST-1, FBS-free medium; assay type: cell-based, human; details: HEK293T cells, mean ± SD, triplicated
Experimental: (§1) Two mammalian cell lines, including human embryonic kidney cells (HEK293T) and human breast cancer cells (MCF7) were cultured in Dulbecco’s modified Eagle’s medium (DMEM; Hyclone^TM, Logan, UT, United States) supplemented with 10% FBS (Hyclone^TM) and 1% penicillin/streptomycin (Hyclone^TM) and incubated at 37°C and 5% CO2 up to 80% confluence. Cellular adherence to the substratum was disrupted using Accutase (Innovative Cell Technologies, San Diego, CA, United States). In total, 1 × 10^4 to 4 × 10^4 cells in each well of a 96-well plate containing 8, 16, 32, and 64 μg/mL of ModoCath peptides were incubated for 24 h at 37°C and 5% CO2. Additionally, HEK293T cells were incubated in the FBS-free medium. Triton X 100 (Sigma Aldrich) was used as a positive control for complete cell lysis, and untreated cells were used as the negative control. After incubation, the medium was removed from the wells, and 10 μL of coloring solution (Cell Proliferation Reagent WST-1^TM; Sigma Aldrich) and 100 μL of DMEM (Hyclone^TM) were added to the wells in accordance with the manufacturer’s protocol. Absorbance was measured for each well at 440 nm (peptide-treated and control) and 650 nm (background) and recorded as the OD, using a microplate reader (xMark^TM spectrophotometer; Bio-Rad). Cell viability was calculated using the following equation:
(§2) (1) CellViability(%)=100×(ODpeptide-ODbackground)/(ODnegative-ODbackground)
(§3) All experiments were performed in triplicate.

MCF7 = test: Mammalian cell cytotoxicity, WST-1; assay type: cell-based, human; details: 24 h, WST-1, triplicate
Experimental: as §1, §2, §3

HEK293T [2] = test: Mammalian cell cytotoxicity, WST-1; assay type: cell-based, human; details: 24 h, WST-1, triplicate
Experimental: as §1, §2, §3

[3] = tested on: HEK293T and MCF7 cells and human primary keratinocytes; test: Cytotoxicity, summary over all tested cells; assay type: cell-based; details: at concentrations below 16 μg/mL
Experimental: as §1, with “Triton X 100 (Sigma Aldrich) was used as a positive control for complete cell lysis, and untreated cells were used as the negative control. After incubation, the medium was removed from the wells, and 10 μL of coloring solution (Cell Proliferation Reagent WST-1^TM; Sigma Aldrich) and 100 μL of DMEM (Hyclone^TM) were added to the wells in accordance with the manufacturer’s protocol.” left out, “equation: […]” for “equation:”
Primary keratinocytes were cultured in 96-well plates at 4 × 10^4 cells per well in 0.1 mL K-SFM (Invitrogen) up to 80% confluence before being treated with various concentrations of ModoCath peptides for 24 h. Cell viability was assessed using the cell proliferation kit II (XTT; Roche, Basel, Switzerland) in accordance with the manufacturer’s protocol. […]

E. coli (ATCC 25922) = test: Serum stability: antimicrobial activity after incubation in human serum; assay type: in vitro ADME, Escherichia coli; details: for antimicrobial activity after incubation with human serum: 25% (v/v) pooled human serum, 37°C, activity against E. coli, OD 450 nm, triplicate; for antimicrobial activity after incubation with serum: 25% pooled human serum, 0, 60 and 120 min, Figure S6
Experimental: Antimicrobial peptides were dissolved in 25% (v/v) pooled human serum from five individuals, and incubated at 37°C. Aliquots were extracted in triplicate after 0, 60, and 120 min incubation, and their antimicrobial activity against E. coli (ATCC 25922) was assessed using the incubated samples, as described above.

[4] = at a higher concentration than 1x MIC

Sequence	Cell viability ± SD (%) Serum negative (HEK293T [1]; peptide 8 ㎍/㎖) [%]	Cell viability ± SD (%) Serum negative (HEK293T [1]; peptide 16 ㎍/㎖) [%]	Cell viability ± SD (%) Serum negative (HEK293T [1]; peptide 32 ㎍/㎖) [%]	Cell viability ± SD (%) Serum negative (HEK293T [1]; peptide 64 ㎍/㎖) [%]	Cell viability ± SD (MCF7; 8 μg/mL) [%]	Cell viability ± SD (MCF7; 16 μg/mL) [%]	Cell viability ± SD (MCF7; 32 μg/mL) [%]	Cell viability ± SD (MCF7; 64 μg/mL) [%]	Cell viability ± SD (HEK293T [2]; 8 μg/mL, 37°C) [%]	Cell viability ± SD (HEK293T [2]; 16 μg/mL) [%]	Cell viability ± SD (HEK293T [2]; 32 μg/mL) [%]	Cell viability ± SD (HEK293T [2]; 64 μg/mL) [%]	Cell survivability [3] [%]	antimicrobial activity after incubation with human serum (E. coli (ATCC 25922); 60 min, at >∼2× MIC)	antimicrobial activity after incubation with human serum (E. coli (ATCC 25922); 120 min)	antimicrobial activity after incubation with serum (E. coli (ATCC 25922); at 1x MIC)	antimicrobial activity after incubation with serum (E. coli (ATCC 25922); [4])
VKRTKRGARRGLTKVLKKIFGSIVKKAVSKGV [ΔModoCath1]	109.5±9.8	103.7±6.9	69.5±7.9	55.9±4.4	91.2 ± 2.5	89.2 ± 0.6	79.1 ± 1.8	42.4 ± 2.1	108.1 ± 9.9	105.5 ± 6.9	66.9 ± 5.0	55.7 ± 6.2	> 90	unaffected	decreased	highly affected	considerably stable
VRRSKRGIKVPSFVKKVLKDVVSESIS [ΔModoCath6]					89.2 ± 1.4	93.2 ± 0.9	92.8 ± 1.0	95.2 ± 1.0	103.8 ± 5.0	95.6 ± 8.4	89.0 ± 13.1	88.8 ± 8.1	> 90				
WYQLIRTFGNLIHQKYRKLLEAYRKLRD [ΔModoCath5]	98.6±6.5	63.5±5.2	39.3±7.6	34.0±1.6	98.4 ± 4.2	84.6 ± 0.6	28.4 ± 0.7	10.3 ± 2.8	93.7 ± 8.3	67.4 ± 3.1	47.8 ± 2.7	35.0 ± 0.8		unaffected	decreased	highly affected	considerably stable
